Test system: BJ fibroblasts
Experiment: Feeder-free reprogramming of BJ fibroblasts to iPSCs on MATRIGEL GFR matrix (Example 11)
Format: cell-based, human
Conditions: Day 17
Experimental: In EXAMPLE 11 embodiments, each in vitro-synthesized pseudouridine-containing ssRNA (i.e., synthesized using ΨTP in place of UTP in the IVT reaction) that encoded an iPSC induction factor [e.g., OCT4, SOX2, KLF4, LIN28, and either cMYC or cMYC(T58A)] or other pseudo-uridine-containing ssRNAs transfected together with the iPSC induction factors was treated with RNase III with 1 mM Mg(OAc)2 prior to capping and tailing of the ssRNA. In this EXAMPLE 11, the RNAse III treatment reactions also contained 0.8 U/microliter SCRIPTGUARD™ RNase inhibitor (CELLSCRIPT, INC.).
Prior to use for reprogramming, BJ fibroblasts (ATCC) were plated 5×10^4 cells per well on 6-well tissue culture plates coated with 83 ng per well of MATRIGEL™ GFR matrix (BD Biosciences, San Jose, Calif.) in Advanced MEM (Invitrogen, Carlsbad, Calif.) supplemented with 10% FBS (Fisher) and 2 mM GLUTAMAX™-I (Invitrogen, Carlsbad, Calif.), a minimum essential medium (MEM) useful for growth of fibroblast cells.
On the following day, the medium was changed to a “Feeder-free Reprogramming Medium” developed by the present applicants. This Feeder-free Reprogramming Medium was composed of Dulbecco's modified Eagle medium with nutrient mixture F-12 (DMEM/F12; (DMEM/F12; Invitrogen, Carlsbad, Calif.) supplemented with 20% KNOCKOUT™ serum replacement (Invitrogen), 2 mM GLUTAMAX™-I (Invitrogen), 0.1 mM non-essential amino acids solution (Invitrogen), 2 micromolar of the transforming growth factor 0 (TGFβ) inhibitor STEMOLECULE™ SB431542 (Stemgent®, Cambridge, Mass., USA), 0.5 micromolar of the MEK signaling pathway inhibitor STEMOLECULE™ PD0325901 (Stemgent), and/or 10 ng/ml the recombinant mouse cytokine, leukemia inhibitory factor (LIF or mLIF; Invitrogen, Carlsbad, Calif.), and 100 ng/ml basic human recombinant fibroblast growth factor (FGF; Invitrogen) with penicillin-streptomycin antibiotics. In some experiments, a lower or higher concentration of one or more of these inhibitors is used (e.g., 1-20 micromolar of the TGFβ inhibitor, 0.5-10 micromolar of the MEK signaling inhibitor, and/or 5-50 ng/ml the recombinant mouse cytokine, leukemia inhibitory factor). Since some of the molecules being inhibited may be introduced by the reagents or media used (e.g., TGFβ in the MATRIGEL™ or other extracellular matrix, the concentrations of the inhibitors used may vary based on the reagents and media used. In some experiments, the TGFβ inhibitor, MEK signaling inhibitor, and/or LIF was omitted from the feeder-free reprogramming medium. The Feeder-free Reprogramming Medium was changed daily one hour prior to each transfection with mRNA reprogramming factors. […] kit (Minis Bio LLC, Madison, Wis., USA) as described in the product literature: Briefly, a solution comprising a mixture of all of the mRNA reprogramming factors was diluted with 250 microliters of OPTI-MEM® I reduced serum medium (Invitrogen, Carlsbad, Calif.), and then 2.4 microliters of TRANSIT™ BOOST was added and mixed, followed by 2.4 microliters of the TRANSIT™ transfection reagent. In some embodiments, no inhibitor of expression of an innate immune response pathway was used. In some other embodiments, 132 ng of pseudouridine-containing mRNA encoding the B18R protein was added to the reprogramming factors comprising mRNA encoding OCT4, SOX2, KLF4, LIN28, and cMYC for reprogramming BJ fibroblasts. This transfection mix was applied dropwise to cells. Cells were then incubated at 37° C. in 5% CO2 until the next day's transfection. After 18 transfections, the medium was changed to a different “iPSC Maintenance Medium” that that was composed of DMEM/F12 supplemented with 20% KNOCKOUT™ serum replacement, 1 mM L-glutamine, 0.1 mM non-essential amino acids solution, and 100 ng/ml basic human recombinant fibroblast growth factor (FGF) (all from Invitrogen, Carlsbad, Calif.) with penicillin-streptomycin antibiotics for a few more days until iPSC colonies were big enough to pick manually. […]

| Structure (SMILES) | iPSC Colonies Observed (PD0325901 0 μM, 2 micromolar SB431542) | iPSC Colonies Observed (PD0325901 0.5 μM, 2 micromolar SB431542) | iPSC Colonies Observed (PD0325901 1 μM, 2 micromolar SB431542) | iPSC Colonies Observed (PD0325901 2 μM, 2 micromolar SB431542) | iPSC Colonies Observed (PD0325901 10 μM, 2 micromolar SB431542) | iPSC Colonies Observed (PD0325901 15 μM, 2 micromolar SB431542) | iPSC Colonies Observed (SB431542 0 μM, five-factor Ψ-mRNA mix daily for 17 days) | iPSC Colonies Observed (SB431542 1 μM) | iPSC Colonies Observed (SB431542 2 μM) | iPSC Colonies Observed (SB431542 4 μM) |
| --- | --- | --- | --- | --- | --- | --- | --- | --- | --- | --- |
| O=C(NOC[C@H](O)CO)c1ccc(F)c(F)c1Nc1ccc(I)cc1F [PD0325901] | 1 | 77 | 27 | 94 | 11 | 0 |  |  |  |  |
| NC(=O)c1ccc(-c2nc(-c3ccc4c(c3)OCO4)c(-c3ccccn3)[nH]2)cc1 [SB431542] |  |  |  |  |  |  | 0 | 9 | 71 | 160 |

Reference: US20130189741A1, “COMPOSITIONS AND METHODS FOR REPROGRAMMING MAMMALIAN CELLS” (Cellscript, Inc., priority 2009, published 2013)
